Laboratory results as given in patent US9156810B2, “Treatment of inflammatory bowel disease” (ALLERGAN, INC., priority 2003, dated 2015).

Assays:
hEP1 = hEP1 (Homo sapiens (Human), UniProt P34995); assay: Radioligand binding ([3H]PGE2), HEK-293 cell membranes expressing EP1 receptor; details: top number in Table 2
Procedure: (§1) HEK-293 cells stably expressing the human or feline FP receptor, or EP1, EP2, EP3, or EP4 receptors were washed with TME buffer, scraped from the bottom of the flasks, and homogenized for 30 sec using a Brinkman PT 10/35 polytron. TME buffer was added to achieve a final 40 ml volume in the centrifuge tubes (the composition of TME is 100 mM TRIS base, 20 mM MgCl2, […]; 10N HCl is added to achieve a pH of 7.4).
(§2) The cell homogenate was centrifuged at 19000 r.p.m. for 20 min at 4° C. using a Beckman Ti-60 rotor. The resultant pellet was resuspended in TME buffer to give a final 1 mg/ml protein concentration, as determined by Biorad assay. Radioligand binding competition assays vs. [^3H-]17-phenyl PGF2α, (5 nM) were performed in a 100 μl volume for 60 min. Binding reactions were started by adding plasma membrane fraction. The reaction was terminated by the addition of 4 ml ice-cold TRIS-HCl buffer and rapid filtration through glass fiber GF/B filters using a Brandel cell harvester. The filters were washed 3 times with ice-cold buffer and oven dried for one hour. Non-specific binding was determined with 10 uM unlabeled 17-phenyl PGF2α.
(§3) [^3H-] PGE2 (5 nM; specific activity 180 Ci mmol) was used as the radioligand for EP receptors. Binding studies employing EP1, EP2, EP3, EP4 were performed in duplicate in at least three separate experiments. A 200 μl assay volume was used. Incubations were for 60 min at 25° C. and were terminated by the addition of 4 ml of ice-cold 50 mM TRIS-HCl, followed by rapid filtration through Whatman GF/B filters and three additional 4 ml washes in a cell harvester (Brandel). Non-specific binding determined with 10^−5M of unlabeled PGE2.

hEP2 [1] = biological target: T1, hEP2 (Homo sapiens (Human), UniProt P43116); assay: Radioligand binding ([3H]PGE2), HEK-293 cell membranes expressing EP2 receptor; details: top number in Table 2
T1 sequence (P43116 whole entry): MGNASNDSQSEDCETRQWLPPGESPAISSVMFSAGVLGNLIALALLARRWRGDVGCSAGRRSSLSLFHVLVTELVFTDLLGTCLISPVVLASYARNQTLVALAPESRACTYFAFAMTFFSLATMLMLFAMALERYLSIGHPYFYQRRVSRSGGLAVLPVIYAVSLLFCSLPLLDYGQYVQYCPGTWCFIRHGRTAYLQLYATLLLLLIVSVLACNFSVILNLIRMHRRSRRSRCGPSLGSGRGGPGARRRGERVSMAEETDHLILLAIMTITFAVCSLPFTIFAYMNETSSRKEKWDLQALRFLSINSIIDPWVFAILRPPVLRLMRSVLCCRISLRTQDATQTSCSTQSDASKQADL
Procedure: as §1, §2, §3

hEP3D = hEP3D (Homo sapiens (Human), UniProt P43115); assay: Radioligand binding ([3H]PGE2), HEK-293 cell membranes expressing EP3 receptor; details: top number in Table 2
hEP3D, sequence (P43115 other isoform, or with tags, fused parts or gaps): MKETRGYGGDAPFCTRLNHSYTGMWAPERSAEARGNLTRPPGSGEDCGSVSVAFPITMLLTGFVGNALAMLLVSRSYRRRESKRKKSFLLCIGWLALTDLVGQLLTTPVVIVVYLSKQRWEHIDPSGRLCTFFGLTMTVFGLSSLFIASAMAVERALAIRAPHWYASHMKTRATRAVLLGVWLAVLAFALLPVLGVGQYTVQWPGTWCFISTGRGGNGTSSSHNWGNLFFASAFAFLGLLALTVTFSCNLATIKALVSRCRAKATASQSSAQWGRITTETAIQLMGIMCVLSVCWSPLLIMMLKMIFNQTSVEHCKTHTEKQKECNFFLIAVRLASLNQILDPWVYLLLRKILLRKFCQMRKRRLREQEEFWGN
Procedure: as §1, §2, §3

hEP4 [2] = biological target: T2, hEP4 (Homo sapiens (Human), UniProt P35408); assay: Radioligand binding ([3H]PGE2), HEK-293 cell membranes expressing EP4 receptor; details: top number in Table 2
T2 sequence (P35408 whole entry, looked up): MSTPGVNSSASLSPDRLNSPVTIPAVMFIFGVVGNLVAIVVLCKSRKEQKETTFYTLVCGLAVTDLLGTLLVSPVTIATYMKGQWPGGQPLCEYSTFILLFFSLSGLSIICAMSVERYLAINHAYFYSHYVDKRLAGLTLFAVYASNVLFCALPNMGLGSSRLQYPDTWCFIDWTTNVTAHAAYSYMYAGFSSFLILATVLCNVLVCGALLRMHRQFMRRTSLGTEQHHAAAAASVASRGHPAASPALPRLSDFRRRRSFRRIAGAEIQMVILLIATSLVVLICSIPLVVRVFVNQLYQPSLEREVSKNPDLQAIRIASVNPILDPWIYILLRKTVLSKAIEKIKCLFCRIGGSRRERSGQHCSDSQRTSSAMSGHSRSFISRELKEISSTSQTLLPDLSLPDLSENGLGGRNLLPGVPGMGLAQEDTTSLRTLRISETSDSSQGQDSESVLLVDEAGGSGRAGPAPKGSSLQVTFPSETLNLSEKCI
Procedure: as §1, §2, §3

hDP = hDP (Homo sapiens (Human), UniProt Q13258); assay: Table 2 top number, hDP (radioligand binding per footnote); details: top number in Table 2
hDP, sequence (Q13258 whole entry): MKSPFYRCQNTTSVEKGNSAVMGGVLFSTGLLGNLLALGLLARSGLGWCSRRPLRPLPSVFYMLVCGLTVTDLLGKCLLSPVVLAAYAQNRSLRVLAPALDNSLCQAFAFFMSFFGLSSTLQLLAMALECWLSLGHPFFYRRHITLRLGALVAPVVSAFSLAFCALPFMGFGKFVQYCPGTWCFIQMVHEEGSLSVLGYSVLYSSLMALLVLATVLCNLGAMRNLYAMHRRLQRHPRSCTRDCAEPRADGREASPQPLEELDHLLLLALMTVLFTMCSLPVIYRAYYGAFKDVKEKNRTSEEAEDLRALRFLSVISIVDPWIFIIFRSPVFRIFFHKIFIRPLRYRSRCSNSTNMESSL

hIP = hIP (Homo sapiens (Human), UniProt P43119); assay: Table 2 top number, hIP (radioligand binding per footnote); details: top number in Table 2
hIP, sequence (P43119 whole entry): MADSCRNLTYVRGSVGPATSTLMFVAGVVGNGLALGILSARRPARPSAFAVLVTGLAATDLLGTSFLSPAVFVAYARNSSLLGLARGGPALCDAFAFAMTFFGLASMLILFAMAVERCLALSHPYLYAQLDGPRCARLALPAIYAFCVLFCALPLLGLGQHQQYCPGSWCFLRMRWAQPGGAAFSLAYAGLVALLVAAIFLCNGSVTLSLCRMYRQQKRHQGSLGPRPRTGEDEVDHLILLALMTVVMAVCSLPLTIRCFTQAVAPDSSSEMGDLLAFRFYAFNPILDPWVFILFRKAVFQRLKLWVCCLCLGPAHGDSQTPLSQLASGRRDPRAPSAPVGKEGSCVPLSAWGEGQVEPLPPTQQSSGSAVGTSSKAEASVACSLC

hTP = hTP (Homo sapiens (Human), UniProt P21731); assay: Table 2 top number, hTP (radioligand binding per footnote); details: top number in Table 2
hTP, sequence (P21731 whole entry): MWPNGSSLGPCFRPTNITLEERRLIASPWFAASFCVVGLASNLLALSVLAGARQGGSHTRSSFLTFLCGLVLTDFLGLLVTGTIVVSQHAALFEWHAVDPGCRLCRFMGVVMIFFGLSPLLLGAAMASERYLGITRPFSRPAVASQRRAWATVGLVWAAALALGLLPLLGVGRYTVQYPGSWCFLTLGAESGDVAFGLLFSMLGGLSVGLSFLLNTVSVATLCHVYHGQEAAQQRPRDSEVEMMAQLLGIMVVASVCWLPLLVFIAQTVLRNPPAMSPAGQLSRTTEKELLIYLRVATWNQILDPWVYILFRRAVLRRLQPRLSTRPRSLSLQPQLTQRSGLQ

hEP2 [3] = biological target: T1, hEP2; assay: FLIPR calcium signal, HEK-293(EBNA) cells expressing hEP2/Gqs5; type: cell-based; details: bottom number in Table 2, read-out: hEP2 functional EC50
Procedure: (§4) HEK-293(EBNA) cells, stably expressing one type or subtype of recombinant human prostaglandin receptors (prostaglandin receptors expressed: hDP/Gqs5; hEP1; hEP2/Gqs5; hEP3A/Gqi5; hEP4/Gqs5; hFP; hIP; hTP), were cultured in 100 mm culture dishes in high-glucose DMEM medium containing 10% fetal bovine serum, 2 mM 1-glutamine, 250 μg/ml geneticin (G418) and 200 μg/ml hygromycin B as selection markers, and 100 units/ml penicillin G, 100 μg/m streptomycin and 0.25 μg/m amphotericin B.
Cells were seeded at a density of 5×10^4 cells per well in Biocoat® Poly-D-lysine-coated black-wall, clear-bottom 96-well plates (Becton-Dickinson) and allowed to attach overnight in an incubator at 37° C. Cells were then washed two times with HBSS-HEPES buffer (Hanks Balanced Salt Solution without bicarbonate and phenol red, 20 mM HEPES, pH 7.4) using a Denley Cellwash plate washer (Labsystems). […]
Cells were excited with an Argon laser at 488 nm, and emission was measured through a 510-570 nm bandwidth emission filter (FLIPR™, Molecular Devices, Sunnyvale, Calif.). […] The peak increase in fluorescence intensity was recorded for each well. […] The peak fluorescence change in each drug-containing well was then expressed relative to the controls. […]

hEP3A = hEP3A (Homo sapiens (Human), UniProt P43115); assay: FLIPR calcium signal, HEK-293(EBNA) cells expressing hEP3A/Gqi5; type: cell-based; details: for EC50: bottom number in Table 2, read-out: hEP3A functional EC50
hEP3A, sequence (P43115 whole entry): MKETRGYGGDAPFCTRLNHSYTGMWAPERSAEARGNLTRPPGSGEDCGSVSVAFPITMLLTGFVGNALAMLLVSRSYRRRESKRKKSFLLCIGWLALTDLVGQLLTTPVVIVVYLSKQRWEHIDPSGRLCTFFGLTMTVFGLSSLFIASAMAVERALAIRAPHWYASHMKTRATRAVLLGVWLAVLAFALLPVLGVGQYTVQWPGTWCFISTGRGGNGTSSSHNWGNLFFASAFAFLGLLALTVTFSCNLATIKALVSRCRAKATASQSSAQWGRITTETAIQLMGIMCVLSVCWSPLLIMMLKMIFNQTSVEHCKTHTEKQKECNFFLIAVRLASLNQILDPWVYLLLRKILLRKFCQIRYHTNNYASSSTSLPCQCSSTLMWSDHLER
Procedure: as §4
(§5) Cells were seeded at a density of 5×10^4 cells per well in Biocoat® Poly-D-lysine-coated black-wall, clear-bottom 96-well plates (Becton-Dickinson) and allowed to attach overnight in an incubator at 37° C. Cells were then washed two times with HBSS-HEPES buffer (Hanks Balanced Salt Solution without bicarbonate and phenol red, 20 mM HEPES, pH 7.4) using a Denley Cellwash plate washer (Labsystems). After 45 minutes of dye-loading in the dark, using the calcium-sensitive dye Fluo-4 AM at a final concentration of 2 μM, plates were washed four times with HBSS-HEPES buffer to remove excess dye leaving 100 μl in each well. Plates were re-equilibrated to 37° C. for a few minutes.
(§6) Cells were excited with an Argon laser at 488 nm, and emission was measured through a 510-570 nm bandwidth emission filter (FLIPR™, Molecular Devices, Sunnyvale, Calif.). Drug solution was added in a 50 μl volume to each well to give the desired final concentration. The peak increase in fluorescence intensity was recorded for each well. On each plate, four wells each served as negative (HBSS-HEPES buffer) and positive controls (standard agonists: BW245C (hDP); PGE2 (hEP1; hEP2/Gqs5; hEP3A/Gqi5; hEP4/Gqs5); PGF2 (hFP); carbacyclin (hIP); U-46619 (hTP), depending on receptor). The peak fluorescence change in each drug-containing well was then expressed relative to the controls.
(§7) Compounds were tested in a high-throughput (HTS) or concentration-response (CoRe) format. In the HTS format, forty-four compounds per plate were examined in duplicates at a concentration of 10^−5 M. To generate concentration-response curves, four compounds per plate were tested in duplicates in a concentration range between 10^−5 and 10^−11 M. The duplicate values were averaged. In either, HTS or CoRe format each compound was tested on at least 3 separate plates using cells from different passages to give an n≧3.

hEP4 [4] = biological target: T2, hEP4; assay: FLIPR calcium signal, HEK-293(EBNA) cells expressing hEP4/Gqs5; type: cell-based; details: bottom number in Table 2, read-out: hEP4 functional EC50
Procedure: as §4, §5
as §6, with “Drug solution was added in a 50 μl volume to each well to give the desired final concentration.” left out
as §7, with “averaged.” for “averaged. In either, HTS or CoRe format each compound was tested on at least 3 separate plates using cells from different passages to give an n≧3.”

hEP1, sequence (P34995 whole entry): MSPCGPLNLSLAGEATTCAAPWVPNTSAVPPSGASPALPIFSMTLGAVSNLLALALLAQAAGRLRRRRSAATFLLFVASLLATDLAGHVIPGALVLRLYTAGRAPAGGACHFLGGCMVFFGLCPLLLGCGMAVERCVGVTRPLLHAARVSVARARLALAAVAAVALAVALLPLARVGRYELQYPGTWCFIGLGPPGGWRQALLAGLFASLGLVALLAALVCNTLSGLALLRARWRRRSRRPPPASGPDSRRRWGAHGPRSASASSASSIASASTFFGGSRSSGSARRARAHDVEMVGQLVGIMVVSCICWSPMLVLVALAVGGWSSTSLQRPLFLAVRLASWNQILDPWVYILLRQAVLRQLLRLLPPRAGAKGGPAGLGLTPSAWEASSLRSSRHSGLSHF

Compound: CCCCC[C@H](O)/C=C/[C@@H]1[C@@H](C/C=C\CCCC(=O)O)C(=O)C(C)(C)[C@H]1O [Compound 44, (Z)-7-[(1R,4S,5R)-4-Hydroxy-5-((E)-(S)-3-hydroxy-oct-1-enyl)-3,3-dimethyl-2-oxo-cyclopentyl]-hept-5-enoic acid]
- IC50 (hEP1): 782 nM
- IC50 (hEP2 [1]): 1500 nM
- IC50 (hEP3D): 300 nM
- IC50 (hEP4 [2]): 5.5 nM
- hDP radioligand binding IC50 (hDP): > 10000 nM
- IC50 (hIP): 284 nM
- IC50 (hTP): 18 nM
- EC50 (hEP2 [3]): 944 nM
- EC50 (hEP3A): 4.6 nM
- EC50 (hEP4 [4]): 0.2 nM

Compound: CCCCC[C@H](O)/C=C/[C@@H]1[C@@H](CC#CCCCC(=O)O)C(=O)C(C)(C)[C@H]1O [Compound 43, 7-[(1R,4S,5R)-4-Hydroxy-5-((E)-(S)-3-hydroxy-oct-1-enyl)-3,3-dimethyl-2-oxo-cyclopentyl]-hept-5-ynoic acid]
- IC50 (hEP1): > 10000 nM
- IC50 (hEP3D): 1700 nM
- IC50 (hEP4 [2]): 400 nM
- IC50 (hIP): 3980 nM
- IC50 (hTP): 18 nM
- EC50 (hEP3A): 11 nM
- EC50 (hEP4 [4]): 63 nM

Compound: CCCCC[C@H](O)/C=C/[C@@H]1[C@@H](C/C=C\CCCC(=O)OC)C(=O)C(C)(C)[C@H]1O [Compound 45, (Z)-7-[(1R,4S,5R)-4-Hydroxy-5-((E)-(S)-3-hydroxy-oct-1-enyl)-3,3-dimethyl-2-oxo-cyclopentyl]-hept-5-enoic acid methyl ester]
- IC50 (hEP3D): > 10000 nM
- IC50 (hEP4 [2]): 400 nM
- IC50 (hTP): 631 nM
- EC50 (hEP3A): 531 nM
- EC50 (hEP4 [4]): 51 nM

Compound: CC1(C)C(=O)[C@H](SCCCSCC(=O)O)[C@@H](/C=C/C(O)CCc2sc3ccccc3c2Cl)[C@@H]1O (single isomer, unassigned) [Compound 23]
- hEP3D radioligand binding IC50 (hEP3D): > 10000 nM
- IC50 (hEP4 [2]): 44 nM
- hTP radioligand binding IC50 (hTP): > 10000 nM
- EC50 (hEP4 [4]): 0.1 nM

Compound: CC1(C)C(=O)[C@H](CC#CCCCC(=O)O)[C@@H](/C=C/C(O)CCc2sc3ccccc3c2Cl)[C@@H]1O (single isomer, unassigned) [Compound 36]
- IC50 (hEP4 [2]): 200 nM
- hIP radioligand binding IC50 (hIP): > 10000 nM
- EC50 (hEP4 [4]): 66 nM

Compound: COC(=O)CCC/C=C\C[C@H]1C(=O)C(C)(C)[C@@H](O)[C@@H]1/C=C/C(O)CCc1ccccc1 (single isomer, unassigned) [Compound 50]
- IC50 (hEP1): 638 nM
- IC50 (hEP3D): 6610 nM
- IC50 (hEP4 [2]): 2400 nM
- hTP radioligand binding IC50 (hTP): > 10000 nM
- hEP3A functional EC50 (hEP3A; bottom number in Table 2): > 10000 nM
- EC50 (hEP4 [4]): 3160 nM

Compound: CC1(C)C(=O)[C@H](C/C=C\CCCC(=O)O)[C@@H](/C=C/C(O)CCc2sc3ccccc3c2Cl)[C@@H]1O (single isomer, unassigned) [Compound 40]
- IC50 (hEP4 [2]): 200 nM
- hTP radioligand binding IC50 (hTP): > 10000 nM
- EC50 (hEP4 [4]): 0.3 nM

Compound: CC1(C)C(=O)[C@H](CC#CCCCC(=O)O)[C@@H](/C=C/C(O)Cc2cc3ccccc3s2)[C@@H]1O (single isomer, unassigned) [Compound 75]
- IC50 (hEP1): 2050 nM
- hEP4 radioligand binding IC50 (hEP4 [2]): > 10000 nM
- hTP radioligand binding IC50 (hTP): > 10000 nM

Compound: CC1(C)C(=O)[C@H](C/C=C\CCCC(=O)O)[C@@H](/C=C/C(O)Cc2ccccc2)[C@@H]1O (single isomer, unassigned) [Compound 46]
- IC50 (hEP1): 290 nM
- hEP2 radioligand binding IC50 (hEP2 [1]): > 10000 nM
- hEP3D radioligand binding IC50 (hEP3D): > 10000 nM
- IC50 (hEP4 [2]): 4 nM
- EC50 (hEP3A): 589 nM
- EC50 (hEP4 [4]): 0.4 nM

Compound: CC1(C)C(=O)[C@H](C/C=C\CCCC(=O)O)[C@@H](/C=C/C(O)Cc2cc3ccccc3s2)[C@@H]1O (single isomer, unassigned) [Compound 54]
- IC50 (hEP1): 308 nM
- IC50 (hEP3D): 4700 nM
- IC50 (hEP4 [2]): 20 nM
- EC50 (hEP4 [4]): 0.3 nM

Compound: CC1(C)C(=O)[C@H](C/C=C\CCCC(=O)O)[C@@H](/C=C/C(O)CCc2sc3ccccc3c2Cl)[C@@H]1O (single isomer, unassigned) [Compound 41]
- hEP2 radioligand binding IC50 (hEP2 [1]): > 10000 nM
- IC50 (hEP4 [2]): 20 nM
- hTP radioligand binding IC50 (hTP): > 10000 nM

Compound: CC1(C)C(=O)[C@H](C/C=C\CCCC(N)=O)[C@@H](/C=C/C(O)Cc2cc3ccccc3s2)[C@@H]1O (single isomer, unassigned) [Compound 69]
- IC50 (hEP4 [2]): 5000 nM
- hTP radioligand binding IC50 (hTP): > 10000 nM

Compound: CC1(C)C(=O)[C@H](C/C=C\CCCC(N)=O)[C@@H](/C=C/C(O)Cc2cc3ccccc3s2)[C@@H]1O (single isomer, unassigned) [Compound 68]
- IC50 (hEP4 [2]): 678 nM
- hTP radioligand binding IC50 (hTP): > 10000 nM

Compound: CCCCC[C@H](O)/C=C/[C@@H]1[C@@H](CC#CCCCC(=O)OC)C(=O)C(C)(C)[C@H]1O [Compound 42, 7-[(1R,4S,5R)-4-Hydroxy-5-((E)-(S)-3-hydroxy-oct-1-enyl)-3,3-dimethyl-2-oxo-cyclopentyl]-hept-5-ynoic acid methyl ester]
- IC50 (hEP3D): > 10000 nM
- IC50 (hEP4 [2]): > 10000 nM
- EC50 (hEP3A): 559 nM

Compound: CC1(C)C(=O)[C@H](C/C=C\CCCC(=O)O)[C@@H](/C=C/C(O)CCc2ccccc2)[C@@H]1O (single isomer, unassigned) [Compound 53]
- IC50 (hEP1): 1020 nM
- IC50 (hEP3D): 1860 nM
- IC50 (hEP4 [2]): 59 nM
- EC50 (hEP4 [4]): 6.4 nM

Compound: CC1(C)C(=O)[C@H](CC#CCCCC(=O)O)[C@@H](/C=C/C(O)CCc2sc3ccccc3c2Cl)[C@@H]1O (single isomer, unassigned) [Compound 37]
- IC50 (hEP4 [2]): 100 nM
- hIP radioligand binding IC50 (hIP): > 10000 nM
- EC50 (hEP4 [4]): 32 nM

Compound: COC(=O)CSCCCS[C@H]1C(=O)C(C)(C)[C@@H](O)[C@@H]1/C=C/C(O)CCc1sc2ccccc2c1Cl (single isomer, unassigned) [Compound 21]
- hEP2 radioligand binding IC50 (hEP2 [1]): > 10000 nM
- IC50 (hEP4 [2]): 98 nM
